# Laboratory results from patent publication US20220378763A1, “COMPOUND FOR TREATMENT OF ACUTE INFLAMMATION IN THE MYOCARDIUM” (CALPROTECT AB, priority 2019, published 2022).
# Legend:
# Format in all cases: in vivo, mouse
# [1] = test system: C57BL/6 mice with MI induced by permanent coronary artery ligation; assay: MI by permanent coronary artery ligation, short-term (3 days) treatment: echocardiography, MRI, scar, infarct size, TUNEL; settings: for Size of the infarction, percentage of the AAR volume, vs PBS: TTC
# Text: (§1) All mouse studies were approved by the Animal Research Ethics Committee of Lund University. C57BL/6NRJ mice were purchased from Janvier Labs, C57BL/6-Tg(Nr4a1-EGFP/cre)820Khog/J (Nur77-EGFP) and B6;D2-Tg(Myh6*-mCherry)2Mik/J (α-MHC-mCherry) were purchased from the Jackson Laboratory. Nur77-EGFP mice express the fluorescent EGFP protein under the Nur77 promoter. α-MHC-mCherry mice express the red fluorescent Cherry protein under the mouse alpha myosin heavy-chain promoter in cardiomyocytes. We used 8-12 weeks old female mice in all experiments. MI was induced by left coronary artery ligation using a minimal thoracotomy model. Mice were initially anesthetized with 4% isoflurane and the surgical procedure was performed under 1.7% isoflurane. Following heart exposure outside of the thorax through a small thoracic incision, the left coronary artery was permanently ligated using silk 6.0 suture, the heart repositioned, and the thorax was closed with 6.0 prolene monofilament suture.
# For short-term experiments, a daily dose of 30 mg/Kg ABR-238901 was diluted in PBS and administered by daily i.p. injections for the first 3 days post-MI, starting immediately after ischemia induction (days 0, 1 and 2) (FIG. 1A).
# (§2) Ultrasound measurements were performed at day −1 (baseline), 7, and 21 to assess cardiac function using a Vevo 770 echocardiographic imaging system with a 707B probe (VisualSonics, Toronto, Canada). In selected experiments, additional assessment was performed on days 3 and 14. The mice were anesthetized using 1-3% isoflurane and hair was carefully removed using depilatory cream. To maintain body temperature, the mice were placed in supine position on a heated surface (37° C.). Two-dimensional M-mode images were recorded in the parasternal short-axis view at the mid-papillary level. Five complete cardiac cycles were traced to calculate fractional shortening, ejection fraction, left ventricular systolic volume, and left ventricular diastolic volume by using the VisualSonics software.
# (§3) At 21 days after MI, the hearts were perfused with ice cold PBS and excised under ketamine/xylazine anesthesia. Subsequently the hearts were fixed in 4% (w/v) paraformaldehyde and embedded in paraffin. The hearts were sectioned transversely from the apex to the level of the suture, and 6 μm thick sections were collected at 390 μm intervals. The sections were mounted on glass slides and stained with Van Gieson or Masson trichrome stain for quantitative analysis of scar size. Alarmin S100A8/A9 was detected using mouse anti-S100A8/A9 IgG1 antibody (Abcam, ab 130234, 1:100 dilution, O/N 4° C.). Goat anti-mouse IgG1 HRP-conjugated secondary antibody (Abcam, ab 97240, 1 h RT) was used and the staining was developed with ImmPACT™ DAB (Vector, SK-4105) chromogen as substrate. The slides were subsequently scanned using an Aperio digital pathology slide scanner (Leica Biosystems), and images were captured with the ImageScope software (Leica Biosystems). Left ventricle area and the infarcted area were measured on each section by using the BioPix iQ 2.5.0 software (Biopix AB). The size of the post-MI myocardial scar was expressed as percentage of the left ventricle volume below the coronary ligature.
# Magnetic resonance measurements were performed on a 9.4 T horizontal magnet (Agilent, Santa Clara, USA) equipped with Bruker BioSpec AVIII electronics operating with ParaVision 6.0.1 (Bruker, Ettlingen, Germany). The experiments were conducted under general anaesthesia using a mixture of isoflurane (2%) and 98% O2 via a nose cone. Rectal temperature, ECG signal, and breathing rate were monitored throughout the measurements (SA instruments, Stony Brook, USA). During the experiment, the mouse was positioned prone in an animal holder and kept warm to maintain constant body temperature at 36-37° C. ECG and respiration triggered FLASH sequence was used to acquire cinematographic MR image series of the beating heart. […]
# [2] = test system: C57BL/6 mice with permanent coronary artery ligation; assay: MI by permanent coronary artery ligation, long-term (21 days) treatment: echocardiography and scar size; settings: treatment for 21 days
# Description: as §2, §3
# MI induction and other procedures were carried out as outlined in Example 2. For long-term experiments of up to 21 days, a daily dose of 30 mg/Kg ABR-238901 was diluted in PBS and administered by daily i.p. injections for the first 3 days post-MI until the mice recovered and started to drink normally, and thereafter p.o. ad-libitum in meglumine buffer (FIG. 4A). Adequate treatment dosage was ensured by closely monitoring daily fluid intake.
# [3] = test system: α-MHC-mCherry mice with MI; assay: Efferocytosis of mCherry+ cardiomyocytes by heart macrophages, 7 days post-MI; settings: treatment for 7 days post-MI
# Text: as §1
# In an attempt to explain these intriguing results, we assessed the effects of the extended treatment on the presence of myeloid cells in blood, spleen, bone marrow and myocardium, with particular emphasis on cellular populations involved in myocardial repair. The cellular infiltration was analysed by flow cytometry on day 7, at the peak of the reparatory post-MI period. […]
# [4] = 3 days treatment, MR, not statistically significant
smiles,measurement,setting,value
"COc1ncc(S(=O)(=O)Nc2cncc(Cl)c2O)cc1Br [ABR-238901, 5-bromo-N-(5-chloro-4-hydroxypyridin-3-yl)-6-methoxypyridine-3-sulfonamide]","Left ventricular EF, average","[1]; 30 mg/Kg i.p. at 0, 24, 48 h, echocardiography, day 21",36%
same,Left ventricular EF vs PBS-treated controls,"[1]; 30 mg/Kg i.p. at 0, 24, 48 h, echocardiography, days 3, 7, 21",higher throughout the follow-up period
same,Increase in cardiac output from day 3 to day 21,"[1]; 3 days treatment, MR",approximately 30%
same,Cardiac output (CO),"[1]; 3 days treatment, MR, day 3",8.1 mL/min
same,Left ventricular EF,"[1]; 3 days treatment, MR, day 3",29%
same,Left ventricular EF,"[1]; 3 days treatment, MR, day 7",25%
same,Cardiac output (CO),"[1]; 3 days treatment, MR, day 21",10.4 mL/min
same,Left ventricular EF,"[1]; 3 days treatment, MR, day 21",26%
same,EDV vs PBS-treated MI group,[1]; [4],tendency towards lower
same,ESV vs PBS-treated MI group,[1]; [4],tendency towards lower
same,"Size of the infarction, percentage of the AAR volume, vs PBS","[1]; 3 days treatment, day 3 post-MI",smaller
same,"Size of the infarction, percentage of the AAR volume, vs PBS","[1]; 3 days treatment, day 7 post-MI",smaller
same,Average myocardial scar size vs controls,"[1]; 3 days treatment, day 21, Van Gieson staining",tendency towards smaller
same,Percentage of apoptotic cells in the myocardium (TUNEL),[1]; day 3 post-MI,significantly reduced
same,Cardiac function (left ventricular ejection fraction),"[2]; 30 mg/Kg i.p. 3 days then p.o., echocardiography",progressive deterioration
same,Size of the myocardial scar,[2]; 21 days,increased
same,EDV vs controls,[2]; day 21,increased
same,ESV vs controls,[2]; day 21,increased
same,Reduction of the number of macrophages having phagocytosed mCherry+ cardiomyocytes,[3],approximately 50%
same,mCherry mean fluorescent intensity (MFI) in MerTKhi and MerTKlo macrophages,[3],did not affect
